Assay results published in ChEMBL document CHEMBL4888484, “Replenishing the malaria drug discovery pipeline: Screening and hit evaluation of the MMV Hit Generation Library 1 (HGL1) against asexual blood stage Plasmodium falciparum ,using a nano luciferase reporter read-out” (2022).

Assays:
Plasmodium falciparum [1] = experiment: Hit confirmation in dose-response curve in NF54 nanoGlo assay, at 12h; assay type: functional, organism-based, Erythrocyte; design: timepoint 12 hour; conditions: Plasmodium falciparum, NF54, Erythrocyte, 12 h
[2] = Hit confirmation in dose-response curve in HepG2 cytotoxicity assay, at 72h; assay type: toxicity, cell-based; design: timepoint 72 hour; conditions: human, HepG2 cells
Plasmodium falciparum [3] = experiment: Hit confirmation in dose-response curve in Dd2 pLDH assay, at 72h; assay type: functional, organism-based; design: timepoint 72 hour; conditions: Dd2, Erythrocyte
Plasmodium falciparum [4] = experiment: Hit confirmation in dose-response curve in NF54 pLDH assay, at 72h; assay type: functional, organism-based; design: timepoint 72 hour; conditions: NF54, Erythrocyte
Plasmodium falciparum [5] = experiment: Hit confirmation in dose-response curve in NF54 nanoGlo assay, at 72h; assay type: functional, organism-based, Erythrocyte; design: timepoint 72 hour; conditions: Plasmodium falciparum, NF54, Erythrocyte, 72 h

Row | Structure (SMILES) | IC50 (Plasmodium falciparum [1]) [µM] | IC50 at 72 h [2] [µM] | IC50 (Plasmodium falciparum [3]) [µM] | IC50 (Plasmodium falciparum [4]) [µM] | IC50 (Plasmodium falciparum [5]) [µM]
1 | Cc1c(C)c2ccc(NC(=O)c3cc4ccccc4o3)cc2[nH]c1=O | 3.47 | > 10 | 3.24 | 8.13 | 1.66
2 | CC1(C)C(NCC(O)COc2ccc(F)c(F)c2)[C@@H]2CCC[C@@H]21 (stereo not given in full) | 2.95 | > 10 | 3.24 | 3.24 | 1.78
3 | CN1CCN([C@H]2CCN(c3ccnc4ccc(Cl)cc34)C[C@H]2CCCO)CC1 | 2.95 | > 10 | 1.48 | 2.14 | 1.74
4 | Oc1cc(OCc2ccccc2F)ccc1-c1[nH]ncc1-c1ccccc1 | 3.89 | > 10 | 3.09 | 4.07 | 2.19
5 | Cc1oc(-c2ccn[nH]2)cc1S(=O)(=O)Nc1ccc(F)c(Cl)c1 | 2.57 | > 10 | > 10 | > 10 | 5.37
6 | CN1CCC(N2CCC(CN(Cc3ccncc3)Cc3c(F)cccc3Cl)CC2)CC1 | 1.74 | > 10 | 0.603 | 1.17 | 0.708
7 | COc1ccc(CC(=N)Nc2cc3cc(OC)c(OC)cc3c(Cc3ccc(OC)c(OC)c3)n2)cc1OC | 5.01 | > 10 | 2 | 3.72 | 2.24
8 | O=C(Nc1cccnc1)c1ccc(-c2ccc(Cl)c(Cl)c2)o1 | 1.66 | > 10 | 7.94 | 8.32 | 2.24
9 | CCN(CC)CCn1c2ccccc2n2cc(-c3ccc(Br)cc3)nc12 | 7.08 | > 10 | 6.46 | 9.77 | 4.47
10 | Cc1nc(N2CCC(c3nc(-c4ccccc4)no3)CC2)c2c(C)noc2n1 | 1.86 | > 10 | > 10 | > 10 | 2.51
11 | CC(C)c1cccc(Nc2nc3ccncc3n(C(C)C)c2=O)c1 | 3.31 | > 10 | 2.09 | 2.82 | 1.66
12 | CCN(CC)c1ccc(C(=O)Nc2ccc3nc(N4CCCC4)cc(C)c3c2)cc1 | 4.27 | > 10 | 3.63 | 3.63 | 2
13 | Cc1nnc(-c2ccc3ccn(CC(=O)Nc4ccc(F)c(Cl)c4)c3c2)o1 | 3.16 | > 10 | 2.69 | 1 | 2
14 | COc1ccc(CNc2nc(-c3nnc(-c4ccccc4)o3)nc3ccccc23)cc1 | 0.776 | > 10 | > 10 | > 10 | 3.02
15 | CC[n+]1c(/C=C/N(C)c2ccccc2)oc2ccc(-c3ccccc3)cc21 | 5.37 | > 10 | 0.417 | 0.891 | 0.562
16 | CCC1=Nc2ccccc2N=C(NC(=O)C(C)C)[C@H]1c1ccc(F)cc1 | 3.8 | > 10 | 8.32 | 7.24 | 2.45
17 | Cc1c(-c2nn(-c3nc(C4CC4)cc(C(F)(F)F)n3)c(-c3cnn(C)c3C)c2Cl)cnn1C | 0.407 | > 10 | > 10 | > 10 | 1.1
18 | CCNC(=O)c1csc(COc2ccc3c(c2)[C@H](c2ccc(C)cc2)N(C(=O)CC(C)C)CC3)n1 | 9.77 | > 10 | 4.47 | 7.76 | 3.55
19 | O=C(Cc1ccc(N(Cc2cccc(F)c2)C(=O)C2CCCC2)cc1)NCCN1CCCC1 | > 10 | > 10 | > 10 | 5.01 | 3.98

Row | Structure (SMILES) | IC50 (Plasmodium falciparum [1]) [µM] | IC50 at 72 h [2] [µM] | IC50 (Plasmodium falciparum [3]) [µM] | IC50 (Plasmodium falciparum [4]) [µM] | IC50 (Plasmodium falciparum [5]) [µM]
20 | O=C(CCn1c(=O)[nH]c2ccsc2c1=O)NCc1ccccc1 | > 10 | > 10 | > 10 | > 10 | 9.12
21 | S=c1cc(-c2ccccc2)n(Cc2ccco2)c2c1CCCC2 | 8.13 | > 10 | 6.46 | 6.46 | 2.57
22 | COC(=O)c1ccccc1NC(=O)NCCn1nnc2cc(S(=O)(=O)N(C)C)ccc21 | > 10 | > 10 | > 10 | > 10 | 2.57
23 | Cc1ccccc1C(=O)N(Cc1cccc(F)c1)c1ccc(CC(=O)NCCN2CCCCC2)cc1 | > 10 | > 10 | 4.68 | 2.75 | 2.57
24 | C[C@H]1Cc2cc(C(=O)NCc3nc(C(F)(F)F)n[nH]3)ccc2O1 | 1.45 | > 10 | > 10 | > 10 | 4.27
25 | O=C(c1cc2ccccc2[nH]1)N1CCc2sc(Cl)cc2C1 | 2.95 | > 10 | > 10 | > 10 | 7.76
26 | CC(C)N1CCC2(CC1)N=C(c1ccc3c(c1)OCO3)C[C@@H](c1cc(Cl)ccc1O)N2 | 4.27 | > 10 | 8.32 | > 10 | 3.8
27 | N#Cc1nc2c(C#N)c(N)n(CCc3ccccc3)c2nc1C#N | 2.04 | > 10 | 1.45 | 0.347 | 1.38
28 | CCc1cccc(NC(=O)N2CCN(C3=CC4=NC[C@H](C)N4C=N3)CC2)c1 | > 10 | > 10 | 2.95 | 1.12 | 3.09
29 | Cc1ccc(C(=O)Nc2cc3c4c(c2)C2CCCC2CN4CC2CCCC32)cc1 (stereo not given) | 9.12 | > 10 | 4.17 | 3.89 | 2.4
30 | Cc1cc(Br)cc(N[C@H](c2cccnc2)c2ncc[nH]2)c1 | 1.48 | > 10 | > 10 | > 10 | 3.39
31 | CCn1c(-c2cc(NC(=O)c3ccc4c(c3)OCO4)[nH]n2)cc2ccc(OC)cc21 | 1.7 | > 10 | > 10 | > 10 | > 10
32 | Cc1cc(C)n(-c2nc(Nc3ccc(Cl)cc3)nc(Nc3ccc(Cl)cc3)n2)n1 | 6.76 | > 10 | 3.63 | > 10 | 2.19
33 | CC(=O)c1cccc(NC(=O)[C@@]23CCC(=O)N2c2ccccc2C(=O)N3C)c1 | 3.09 | > 10 | 2.82 | 5.89 | 1.91
34 | N[C@H]1C[C@@H](c2cc(N3CCN(C4CCCCC4)CC3)nc(N3CCCC3)n2)C1 | 5.75 | > 10 | 2.29 | 4.17 | 2
35 | CC(=O)Nc1ccc(C)cc1S(=O)(=O)N1CC=C(c2c(C)n(Cc3ccccc3C)c3ccccc23)CC1 | 1.86 | > 10 | 3.47 | 4.47 | 1.7
36 | C[N+]12CCCCC1C(OC(=O)C1(c3ccccc3)CCCC1)CCC2 (stereo not given) | > 10 | > 10 | 2.04 | 2.82 | 2.04
37 | CCOc1ccc(-c2cc(NC(=O)c3cc(-c4cccnc4)nc4ccccc34)on2)cc1OCC | 2.69 | > 10 | 4.9 | > 10 | 1.91
